From paper PMC8092220, “Insights into the Relationship between Cobamide Synthase and the Cell Membrane” (mBio, 2021)

Molecular target: T1, cobamide (5′ phosphate) synthase (CobS) (Salmonella enterica, UniProt Q05602)
T1 construct: CobS^WT reconstituted in proteoliposomes
Test: DRaCALA with […]α-RP, CobS proteoliposomes (Kd […] for DHPC-solubilized CobS); also protection in limited trypsin proteolysis
Format: binding

T1 sequence (Q05602 whole entry): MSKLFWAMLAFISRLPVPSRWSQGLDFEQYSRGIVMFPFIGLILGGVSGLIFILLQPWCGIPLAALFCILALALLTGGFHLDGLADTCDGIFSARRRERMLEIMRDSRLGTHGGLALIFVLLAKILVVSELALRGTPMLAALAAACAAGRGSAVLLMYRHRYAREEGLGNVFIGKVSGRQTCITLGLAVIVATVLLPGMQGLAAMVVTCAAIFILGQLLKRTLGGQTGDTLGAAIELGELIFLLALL

**Q.** For `Cc1cc2ncn([C@H]3O[C@H](COP(=O)(O)O)[C@@H](O)[C@H]3O)c2cc1C` [α-RP, N1-(5-phospho-alpha-D-ribosyl)-5,6-dimethylbenzimidazole], which Kd is on record?
**A.** Its Kd is 0.58 µM.
